In patent US20090105212A1, “NOVEL ADENINE COMPOUND” (priority 2005, published 2009):

These molecules were tested against T1, Human TLR7 (Homo sapiens, UniProt Q9NYK1) (assay: Human TLR7 reporter assay (NF-kB-SEAP, HEK293 cells)). Conditions: hTLR7/seap-293 cells (HEK293, NF-kB-SEAP reporter), 20 hours incubation, 1 nM-10 μM, absorbance 405 nm; read-out: human TLR7 binding activity (EC50).
T1 construct: expressed in transfected cells; host or cells: HEK293 (hTLR7/seap-293)
T1 sequence (Q9NYK1 27-1049): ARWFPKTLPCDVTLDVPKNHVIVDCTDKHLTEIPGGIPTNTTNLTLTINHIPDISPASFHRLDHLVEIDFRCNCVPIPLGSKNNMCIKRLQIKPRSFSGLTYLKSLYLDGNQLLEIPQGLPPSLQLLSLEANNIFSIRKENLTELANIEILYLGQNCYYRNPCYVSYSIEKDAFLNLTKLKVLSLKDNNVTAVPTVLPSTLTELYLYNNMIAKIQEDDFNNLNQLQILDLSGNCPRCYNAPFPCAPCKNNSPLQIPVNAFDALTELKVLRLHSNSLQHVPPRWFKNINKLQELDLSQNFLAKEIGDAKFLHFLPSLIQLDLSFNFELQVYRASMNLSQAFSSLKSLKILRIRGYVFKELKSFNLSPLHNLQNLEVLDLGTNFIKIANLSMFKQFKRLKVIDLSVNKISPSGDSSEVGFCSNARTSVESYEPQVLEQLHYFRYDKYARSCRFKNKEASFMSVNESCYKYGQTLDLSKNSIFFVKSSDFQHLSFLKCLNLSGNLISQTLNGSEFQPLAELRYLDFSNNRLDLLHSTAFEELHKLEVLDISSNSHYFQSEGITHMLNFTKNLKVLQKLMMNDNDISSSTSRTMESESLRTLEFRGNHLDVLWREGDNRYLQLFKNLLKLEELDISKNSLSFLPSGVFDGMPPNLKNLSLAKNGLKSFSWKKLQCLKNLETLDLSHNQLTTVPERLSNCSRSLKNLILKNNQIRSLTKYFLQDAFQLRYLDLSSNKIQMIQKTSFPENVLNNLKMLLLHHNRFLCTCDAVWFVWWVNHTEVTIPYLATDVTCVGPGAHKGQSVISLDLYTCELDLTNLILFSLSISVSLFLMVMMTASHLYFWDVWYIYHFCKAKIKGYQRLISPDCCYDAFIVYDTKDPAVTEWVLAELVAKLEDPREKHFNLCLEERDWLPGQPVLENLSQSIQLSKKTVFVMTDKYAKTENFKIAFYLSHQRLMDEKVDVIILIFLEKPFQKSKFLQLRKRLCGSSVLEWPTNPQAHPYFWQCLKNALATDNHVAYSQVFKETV
Type: cell-based
Description: Human TLR7 Reporter Assay
Human TLR7 or rat TLR7 plasmid and reporter plasmid (NF-kB-SEAP) stably-induced HEK293 cells were suspended in DMEM media (10% […], 1% NEAA, 10 ug/mL blastocidin S HCl, 100 ug/mL Zeocin), and the suspension was seeded in 90 μl/well on 96 well plate (hTLR7/seap-293:20000 cells/well, rTLR7/seap-293:25000 cells/well).
To the cells seeded on 96 well plate was added in 10 μl/well a test compound wherein DMSO stock solution (2 μl) was hundredfold diluted with medium (200 μl) (final concentration; 1 nM-10 μM, common ratio 3). The mixture was stirred tapping in the side of the plate, and then incubated for 20 hours in CO2 incubator. To the cells stimulated by a test compound was added a substrate for reporter assay (substrate for SEAP, pNPP) by 50 μl/well. 10 minutes after the addition of substrate, a quenching solution (4N NaOH) was added by 50 μl/well, and the enzymatic reaction was quenched. Top seal A was attached on the plate, and absorbance was measured by microplate reader (405 nm).
In the case of `CCCCOc1nc(N)c2[nH]c(=O)n(Cc3ccc(CCN4CCC(C(=O)OC)CC4)cc3)c2n1` [Example 18, 2-Butoxy-7,8-dihydro-9-{4-[2-(4-methoxycarbonyl-piperidin-1-yl)ethyl]benzyl}-8-oxoadenine], the EC50 is reported as 2.2 nM. `CCCCOc1nc(N)c2[nH]c(=O)n(Cc3ccc(CN(C)CC(=O)OCCCCN(C)C)cc3OC)c2n1` [Example 23, 2-Butoxy-7,8-dihydro-9-{4-[N-(4-dimethylaminobutoxy-carbonylmethyl)-N-methylaminomethyl]-2-methoxybenzyl}-8-oxoadenine] was tested, and the EC50 was 15.7 nM. Molecule `CCCCOc1nc(N)c2[nH]c(=O)n(Cc3ccc(CCN(C)CC(=O)OC)cc3)c2n1` [Example 20, 2-Butoxy-7,8-dihydro-9-{4-[2-(N-methoxycarbonylmethyl-N-methylamino)ethyl]benzyl}-8-oxoadenine] has an EC50 of 18.5 nM. `CCCCOc1nc(N)c2[nH]c(=O)n(Cc3ccc(OCCCN(C)CC(=O)OC)cc3)c2n1` [Example 4, 2-butoxy-7,8-dihydro-9-[4-{3-[(N-methyl-N-methoxycarbonylmethyl)amino]propoxy}benzyl]-8-oxoadenine] gave an EC50 of 7.8 nM. For `CCCCOc1nc(N)c2[nH]c(=O)n(Cc3ccc(OCCCCN(C)CC(=O)OCCCCN(C)C)nc3)c2n1` [Example 28, 2-Butoxy-7,8-dihydro-9-[6-(4-{N′-methyl-N′-[4-(N,N-dimethylamino)butoxycarbonylmethyl]}aminobutoxy)pyridin-3-ylmethyl]-8-oxoadenine], the EC50 was 2 nM. In the case of `CCCCOc1nc(N)c2[nH]c(=O)n(Cc3ccc(CN(C)CC(=O)OC)cc3OC)c2n1` [Example 16, 2-Butoxy-7,8-dihydro-9-[2-methoxy-4-(N-methoxycarbonylmethyl-N-methylaminomethyl)benzyl]-8-oxoadenine], the EC50 is reported as 15.6 nM. `CCCCOc1nc(N)c2[nH]c(=O)n(Cc3ccc(OCCCCN4CCC(C(=O)OCCCCN(C)C)CC4)cc3)c2n1` [Example 3, 2-butoxy-7,8-dihydro-9-(4-[4-{4-[4-(N,N-dimethylamino)butoxycarbonyl]piperidin-1-yl}butoxy]benzyl)-8-oxoadenine] gave an EC50 of 7.8 nM. Work on `CCCCOc1nc(N)c2[nH]c(=O)n(Cc3ccc(OCCCCN4CCC(C(=O)OC)CC4)cc3)c2n1` [Example 1, 2-Butoxy-7,8-dihydro-9-[4-{4-[4-(methoxycarbonyl)-piperidin-1-yl]butoxy}benzyl]-8-oxoadenine] yielded an EC50 of 5.7 nM. Molecule `COCCOc1nc(N)c2[nH]c(=O)n(Cc3ccc(CN(C)CC(=O)OC)cc3)c2n1` [Example 12, 7,8-Dihydro-9-[4-(N-methoxycarbonylmethyl-N-methylaminomethyl)benzyl]-2-(2-methoxyethoxy)-8-oxoadenine] has an EC50 of 252 nM. `CCCCOc1nc(N)c2[nH]c(=O)n(Cc3ccc(OCCCCN(C)CC(=O)OC)nc3)c2n1` [Example 26] showed an EC50 of 2.8 nM. `CCCCOc1nc(N)c2[nH]c(=O)n(Cc3ccc(CCCN(C)CC(=O)OC)cc3)c2n1` [Example 21, 2-Butoxy-7,8-dihydro-9-{4-[3-(N-methoxycarbonylmethyl-N-methylamino)propyl]benzyl}-8-oxoadenine] was tested, and the EC50 was 6.8 nM. `CCCCOc1nc(N)c2[nH]c(=O)n(Cc3ccc(CN(C)CC(=O)OC)cc3)c2n1` [Example 9, 2-Butoxy-7,8-dihydro-9-[4-(N-methoxycarbonylmethyl-N-methylaminomethyl)benzyl]-8-oxoadenine] gave an EC50 of 8.8 nM. `CCCCOc1nc(N)c2[nH]c(=O)n(Cc3ccc(OCC4CCN(CC(=O)OCCCCN(C)C)CC4)cc3)c2n1` [Example 7, 2-Butoxy-7,8-dihydro-9-[4-{1-[4-(N,N-dimethylamino)-butoxycarbonylmethyl]piperidin-4-ylmethyloxy}benzyl]-8-oxoadenine] was tested, and the EC50 was 5.1 nM. `CCCCOc1nc(N)c2[nH]c(=O)n(Cc3ccc(OCC4CCN(CC(=O)OC)CC4)cc3)c2n1` [Example 5, 2-butoxy-7,8-dihydro-9-{4-[1-(methoxycarbonylmethyl)piperidin-4-ylmethyloxy]benzyl}-8-oxoadenine] was tested, and the EC50 was 3.6 nM. Work on `CCCCOc1nc(N)c2[nH]c(=O)n(Cc3ccc(OCCCCN4CCC(C(=O)OC)CC4)nc3)c2n1` [Example 24, 2-butoxy-7,8-dihydro-9-{6-[4-(4-methoxylcarbonylpiperidin-1-yl)butoxy]pyridin-3-ylmethyl}-8-oxoadenine] yielded an EC50 of under 1 nM.
